# In US20250319056A1, “METHODS FOR TREATING CANCER” (THE TRUSTEES OF INDIANA UNIVERSITY, priority 2024, published 2025):
# pEC50: −log10 of the molar value.
# Assays:
# [1] = AlamarBlue cell viability assay, non-cancerous intestine FHs-74Int cells; details: human, FHs-74Int non-cancerous intestine cells, Human Cell Viability CC50 Intestine (FHs 74Int), non-cancerous intestine cells, AlamarBlue, 48 h
# DLD-1 cells = test: AlamarBlue cell viability assay, DLD-1 colon cancer cells; assay type: cell-based; details: Homo sapiens, 48 h with compound, ^BP = curve baseline plateaued between ~10-20%, read-out: Human Cell Viability EC50 Colon Cancer (DLD1)
# [2] = AlamarBlue cell viability assay, non-cancerous colon FHC cells; details: human, FHC non-cancerous colon cells, Human Cell Viability CC50 Colon (FHC), non-cancerous colon cells, AlamarBlue, 48 h
# HT-29 cells = test: AlamarBlue cell viability assay, HT-29 colon cancer cells; assay type: cell-based; details: Homo sapiens, 48 h with compound, ^BP = curve baseline plateaued between ~10-20%
# HCT-116 cells = test: AlamarBlue cell viability assay, HCT-116 colon cancer cells; assay type: cell-based, human; details: for Average Selectivity Index: CC50 non-cancer cells (FHC, FHs 74Int) compared to EC50 HCT-116; for pEC50: Homo sapiens, HCT-116, 48 h, AlamarBlue, 48 h with compound, read-out: Human Cell Viability EC50 Colon Cancer (HCT 116)
# NCI-60 cancer cell panel [3] = test: NCI-60 panel single-dose cell growth screen; assay type: cell-based; details: single dose 10 μM; 0 = cytostatic, -100% = cytocidal, +100% = growth
# Procedure: FIGS. 10A-10J show cell growth results for 10 lead candidate inhibitors (compound 162, FIG. 10A; compound 163, FIG. 10B; compound 164, FIG. 10C; compound 4, FIG. 10D; compound 165, FIG. 10E; compound 139, FIG. 10F; compound 132, FIG. 10G; compound 143, FIG. 10H; compound 147, FIG. 10I; compound 128, FIG. 10J) tested at 10 μM against the NCI cancer cell panel. Zero indicates no cells growth/death from what was initially plated (cytostatic inhibition). −100% indicates […] (cytocidal inhibition). +100% indicates cell growth.
# In a previous study evaluating the anti-cancer effects of ABK inhibitors, the National Cancer Institute (NCI) database was explored for existing cytotoxicity results for any compounds bearing α,β-unsaturated ketone moieties against the comprehensive NCI-60 cancer cell panel. […] The HQ-NAH and NF-NAH inhibitor library was explored based on the similarity to Nifuroxazide's scaffold. […] Initial screening was performed at a single concentration of 10 μM, and cell growth results are presented in aggregate based on cancer cell origin (FIGS. 10A-10J).
# NCI-60 cancer cell panel [4] = test: NCI-60 panel dose-response cell growth testing; assay type: cell-based; details: follow-up dose response, range across NCI-60 cell lines
# Excerpt: FIGS. 11A-11G show cell growth results in dose-response for 7 lead candidate inhibitors (compound 162, FIG. 11A; compound 164, FIG. 11B; compound 128, FIG. 11C compound 165, FIG. 11D; compound 139, FIG. 11E; compound 143, FIG. 11F; compound 147, FIG. 11G) from initial single-dose NCI-60 screen.
# Therefore, they appeared to act in a cytocidal manner.
compound,measurement,setting,value
O=C(N/N=C/c1ccc(O)c2ncccc12)c1ccc(NS(=O)(=O)c2ccc(Br)cc2)cc1 [Compound 146],CC50 at 48 h,[1],91 µM
same,pEC50,DLD-1 cells,5.22
same,CC50 at 48 h,[2],59 µM
same,pEC50,HT-29 cells,5.85
same,Average Selectivity Index,HCT-116 cells,14
same,pEC50,HCT-116 cells,5.28
COc1ccc(C(=O)N/N=C/c2ccc(O)c3ccccc23)cc1 [Compound 148],CC50,FHs-74Int cells,> 100 µM
same,CC50,FHC cells,> 100 µM
O=C(N/N=C/c1ccc(O)c2ccccc12)c1ccccc1 [Compound 149],CC50,FHs-74Int cells,> 100 µM
same,CC50,FHC cells,> 100 µM
COc1ccc(C(=O)N/N=C/c2cccc3ncccc23)cc1 [Compound 150],CC50,FHs-74Int cells,> 100 µM
same,CC50,FHC cells,> 100 µM
O=C(N/N=C/c1cccc2ncccc12)c1ccccc1 [Compound 151],CC50,FHs-74Int cells,> 100 µM
same,CC50,FHC cells,> 100 µM
COc1ccc(C(=O)N/N=C/c2cccc3ccccc23)cc1 [Compound 152],CC50,FHs-74Int cells,> 100 µM
same,CC50,FHC cells,> 100 µM
O=C(N/N=C/c1cccc2ccccc12)c1ccccc1 [Compound 153],CC50,FHs-74Int cells,> 100 µM
same,CC50,FHC cells,≥ 100 µM
COc1ccc(C(=O)N/N=C/c2ccc(O)cc2)cc1 [Compound 154],CC50,FHs-74Int cells,> 100 µM
same,CC50,FHC cells,> 100 µM
O=C(N/N=C/c1ccc(O)cc1)c1ccccc1 [Compound 155],CC50,FHs-74Int cells,> 100 µM
same,CC50,FHC cells,> 100 µM
COc1ccc(C(=O)N/N=C/c2ccccc2)cc1 [Compound 156],CC50,FHs-74Int cells,> 100 µM
same,CC50,FHC cells,> 100 µM
O=C(N/N=C/c1ccccc1)c1ccccc1 [Compound 157],CC50,FHs-74Int cells,> 100 µM
same,CC50,FHC cells,> 100 µM
"Cc1ccc(S(=O)(=O)Nc2ccc(-c3nc4cc(NS(=O)(=O)c5ccc(C)cc5)ccc4o3)cc2)cc1 [Compound 162, 4-methyl-N-(4-(5-((4-methylphenyl)sulfonamido)benzo[d]oxazol-2-yl)phenyl)benzenesulfonamide]",cell growth % NCI cancer cell panel,NCI-60 cancer cell panel [3],negative % growth
same,GI50,NCI-60 cancer cell panel [4],1 to 5 µM
"COc1ccccc1S(=O)(=O)Nc1ccc(-c2nc3cc(NS(=O)(=O)c4ccccc4OC)ccc3o2)cc1 [Compound 164, 2-methoxy-N-(4-(5-((2-methoxyphenyl)sulfonamido)benzo[d]oxazol-2-yl)phenyl)benzenesulfonamide]",cell growth % NCI cancer cell panel,NCI-60 cancer cell panel [3],around 0%
same,GI50,NCI-60 cancer cell panel [4],1 to 5 µM
"O=C(Nc1ccc(Sc2nc3ccccc3s2)c(Cl)c1)c1cc(Br)ccc1O [Compound 165, N-(4-(Benzo[d]thiazol-2-ylthio)-3-chlorophenyl)-5-bromo-2-hydroxybenzamide]",cell growth % NCI cancer cell panel,NCI-60 cancer cell panel [3],negative % growth
same,GI50,NCI-60 cancer cell panel [4],1 to 5 µM
"O=C(N/N=C/c1ccc([N+](=O)[O-])o1)c1ccc(O)cc1 [Nifuroxazide (Nfz), Nifuroxazide, reference compound]",CC50 at 48 h,[1],62 µM
same,pEC50,DLD-1 cells,5.82
same,CC50 at 48 h,[2],66 µM
same,pEC50,HT-29 cells,5.46
same,Average Selectivity Index,HCT-116 cells,7.7
same,pEC50,HCT-116 cells,5.08
